Measurements as given in publication PMC10905675, “INX-315, a Selective CDK2 Inhibitor, Induces Cell Cycle Arrest and Senescence in Solid Tumors” (Cancer Discovery, 2023).

Experiments:
Test in all cases: SelectScreen ZLYTE
Type in all cases: biochemical
Conditions in all cases: INX-0315 at 100nM
RPS6KA6 (RSK4) = molecular target: T1, RPS6KA6 (RSK4) (Homo sapiens, UniProt Q9UK32)
T1 construct: purchased Thermo Fisher Scientific SelectScreen (plus Nanosyn / Reaction Biology for CDK/cyclin lines)
Outline: (§1)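 INX-315, single point 100 nmol/L, 1% DMSO; then 10-pt titration 1 µmol/L → 0.0495 nmol/L. Standard vendor conditions.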

AXL = molecular target: T2, AXL (Homo sapiens, UniProt P30530)
T2 construct: purchased Thermo Fisher Scientific SelectScreen (plus Nanosyn / Reaction Biology for CDK/cyclin lines)
Outline: as §1

AMPK (A2/B2/G3) = molecular target: T3, AMPK (A2/B2/G3) (Homo sapiens, UniProt P54646)
T3 construct: purchased Thermo Fisher Scientific SelectScreen (plus Nanosyn / Reaction Biology for CDK/cyclin lines)
Outline: as §1

CDKL5 = molecular target: T4, CDKL5 (Homo sapiens, UniProt O76039)
T4 construct: purchased Thermo Fisher Scientific SelectScreen (plus Nanosyn / Reaction Biology for CDK/cyclin lines)
Outline: as §1

PRKG1 = molecular target: T5, PRKG1 (Homo sapiens, UniProt Q13976)
T5 construct: purchased Thermo Fisher Scientific SelectScreen (plus Nanosyn / Reaction Biology for CDK/cyclin lines)
Outline: as §1

PRKCN (PKD3) = molecular target: T6, PRKCN (PKD3) (Homo sapiens, UniProt O94806)
T6 construct: purchased Thermo Fisher Scientific SelectScreen (plus Nanosyn / Reaction Biology for CDK/cyclin lines)
Outline: as §1

DYRK1B = molecular target: T7, DYRK1B (Homo sapiens, UniProt Q9Y463)
T7 construct: purchased Thermo Fisher Scientific SelectScreen (plus Nanosyn / Reaction Biology for CDK/cyclin lines)
Outline: as §1

PRKCB1 (PKC beta I) = molecular target: T8, PRKCB1 (PKC beta I) (Homo sapiens, UniProt P05771)
T8 construct: purchased Thermo Fisher Scientific SelectScreen (plus Nanosyn / Reaction Biology for CDK/cyclin lines)
Outline: as §1

DAPK3 (ZIPK) = molecular target: T9, DAPK3 (ZIPK) (Homo sapiens, UniProt O43293)
T9 construct: purchased Thermo Fisher Scientific SelectScreen (plus Nanosyn / Reaction Biology for CDK/cyclin lines)
Outline: as §1

MAPK11 (p38 beta) = molecular target: T10, MAPK11 (p38 beta) (Homo sapiens, UniProt Q15759)
T10 construct: purchased Thermo Fisher Scientific SelectScreen (plus Nanosyn / Reaction Biology for CDK/cyclin lines)
Outline: as §1

EPHA4 = molecular target: T11, EPHA4 (Homo sapiens, UniProt P54764)
T11 construct: purchased Thermo Fisher Scientific SelectScreen (plus Nanosyn / Reaction Biology for CDK/cyclin lines)
Outline: as §1

ROS1 = molecular target: T12, ROS1 (Homo sapiens, UniProt P08922)
T12 construct: purchased Thermo Fisher Scientific SelectScreen (plus Nanosyn / Reaction Biology for CDK/cyclin lines)
Outline: as §1

MARK1 (MARK) = molecular target: T13, MARK1 (MARK) (Homo sapiens, UniProt Q9P0L2)
T13 construct: purchased Thermo Fisher Scientific SelectScreen (plus Nanosyn / Reaction Biology for CDK/cyclin lines)
Outline: as §1

EGFR (ErbB1) L861Q = molecular target: T14, EGFR (ErbB1) L861Q (Homo sapiens, UniProt P00533, L861Q)
T14 construct: purchased Thermo Fisher Scientific SelectScreen (plus Nanosyn / Reaction Biology for CDK/cyclin lines)
Outline: as §1

SRPK1 = molecular target: T15, SRPK1 (Homo sapiens, UniProt Q96SB4)
T15 construct: purchased Thermo Fisher Scientific SelectScreen (plus Nanosyn / Reaction Biology for CDK/cyclin lines)
Outline: as §1

NTRK2 (TRKB) = molecular target: T16, NTRK2 (TRKB) (Homo sapiens, UniProt Q16620)
T16 construct: purchased Thermo Fisher Scientific SelectScreen (plus Nanosyn / Reaction Biology for CDK/cyclin lines)
Outline: as §1

MST1R (RON) = molecular target: T17, MST1R (RON) (Homo sapiens, UniProt Q04912)
T17 construct: purchased Thermo Fisher Scientific SelectScreen (plus Nanosyn / Reaction Biology for CDK/cyclin lines)
Outline: as §1

EPHB1 = molecular target: T18, EPHB1 (Homo sapiens, UniProt P54762)
T18 construct: purchased Thermo Fisher Scientific SelectScreen (plus Nanosyn / Reaction Biology for CDK/cyclin lines)
Outline: as §1

PRKCA (PKC alpha) = molecular target: T19, PRKCA (PKC alpha) (Homo sapiens, UniProt P17252)
T19 construct: purchased Thermo Fisher Scientific SelectScreen (plus Nanosyn / Reaction Biology for CDK/cyclin lines)
Outline: as §1

CLK2 = molecular target: T20, CLK2 (Homo sapiens, UniProt P49760)
T20 construct: purchased Thermo Fisher Scientific SelectScreen (plus Nanosyn / Reaction Biology for CDK/cyclin lines)
Outline: as §1

MAPK3 (ERK1) = molecular target: T21, MAPK3 (ERK1) (Homo sapiens, UniProt P27361)
T21 construct: purchased Thermo Fisher Scientific SelectScreen (plus Nanosyn / Reaction Biology for CDK/cyclin lines)
Outline: as §1

KIT V559D = molecular target: T22, KIT V559D (Homo sapiens, UniProt P10721, V559D)
T22 construct: purchased Thermo Fisher Scientific SelectScreen (plus Nanosyn / Reaction Biology for CDK/cyclin lines)
Outline: as §1

MELK = molecular target: T23, MELK (Homo sapiens, UniProt Q14680)
T23 construct: purchased Thermo Fisher Scientific SelectScreen (plus Nanosyn / Reaction Biology for CDK/cyclin lines)
Outline: as §1

SNF1LK2 = molecular target: T24, SNF1LK2 (Homo sapiens, UniProt Q9H0K1)
T24 construct: purchased Thermo Fisher Scientific SelectScreen (plus Nanosyn / Reaction Biology for CDK/cyclin lines)
Outline: as §1

DYRK4 = molecular target: T25, DYRK4 (Homo sapiens, UniProt Q9NR20)
T25 construct: purchased Thermo Fisher Scientific SelectScreen (plus Nanosyn / Reaction Biology for CDK/cyclin lines)
Outline: as §1

MAPK8 (JNK1) = molecular target: T26, MAPK8 (JNK1) (Homo sapiens, UniProt P45983)
T26 construct: purchased Thermo Fisher Scientific SelectScreen (plus Nanosyn / Reaction Biology for CDK/cyclin lines)
Outline: as §1

EGFR (ErbB1) G719S = molecular target: T27, EGFR (ErbB1) G719S (Homo sapiens, UniProt P00533, G719S)
T27 construct: purchased Thermo Fisher Scientific SelectScreen (plus Nanosyn / Reaction Biology for CDK/cyclin lines)
Outline: as §1

NTRK3 (TRKC) = molecular target: T28, NTRK3 (TRKC) (Homo sapiens, UniProt Q16288)
T28 construct: purchased Thermo Fisher Scientific SelectScreen (plus Nanosyn / Reaction Biology for CDK/cyclin lines)
Outline: as §1

STK3 (MST2) = molecular target: T29, STK3 (MST2) (Homo sapiens, UniProt Q13188)
T29 construct: purchased Thermo Fisher Scientific SelectScreen (plus Nanosyn / Reaction Biology for CDK/cyclin lines)
Outline: as §1

NEK1 = molecular target: T30, NEK1 (Homo sapiens, UniProt Q96PY6)
T30 construct: purchased Thermo Fisher Scientific SelectScreen (plus Nanosyn / Reaction Biology for CDK/cyclin lines)
Outline: as §1

MAPK13 (p38 delta) = molecular target: T31, MAPK13 (p38 delta) (Homo sapiens, UniProt O15264)
T31 construct: purchased Thermo Fisher Scientific SelectScreen (plus Nanosyn / Reaction Biology for CDK/cyclin lines)
Outline: as §1

MAPK7 (ERK5) = molecular target: T32, MAPK7 (ERK5) (Homo sapiens, UniProt Q13164)
T32 construct: purchased Thermo Fisher Scientific SelectScreen (plus Nanosyn / Reaction Biology for CDK/cyclin lines)
Outline: as §1

PDGFRB (PDGFR beta) = molecular target: T33, PDGFRB (PDGFR beta) (Homo sapiens, UniProt P09619)
T33 construct: purchased Thermo Fisher Scientific SelectScreen (plus Nanosyn / Reaction Biology for CDK/cyclin lines)
Outline: as §1

IKBKE (IKK epsilon) = molecular target: T34, IKBKE (IKK epsilon) (Homo sapiens, UniProt Q14164)
T34 construct: purchased Thermo Fisher Scientific SelectScreen (plus Nanosyn / Reaction Biology for CDK/cyclin lines)
Outline: as §1

AMPK (A2/B1/G3) = molecular target: T35, AMPK (A2/B1/G3) (Homo sapiens, UniProt P54646)
T35 construct: purchased Thermo Fisher Scientific SelectScreen (plus Nanosyn / Reaction Biology for CDK/cyclin lines)
Outline: as §1

AMPK A2/B1/G1 = molecular target: T36, AMPK A2/B1/G1 (Homo sapiens, UniProt P54646)
T36 construct: purchased Thermo Fisher Scientific SelectScreen (plus Nanosyn / Reaction Biology for CDK/cyclin lines)
Outline: as §1

PLK2 = molecular target: T37, PLK2 (Homo sapiens, UniProt Q9NYY3)
T37 construct: purchased Thermo Fisher Scientific SelectScreen (plus Nanosyn / Reaction Biology for CDK/cyclin lines)
Outline: as §1

T31 sequence (O15264 whole entry): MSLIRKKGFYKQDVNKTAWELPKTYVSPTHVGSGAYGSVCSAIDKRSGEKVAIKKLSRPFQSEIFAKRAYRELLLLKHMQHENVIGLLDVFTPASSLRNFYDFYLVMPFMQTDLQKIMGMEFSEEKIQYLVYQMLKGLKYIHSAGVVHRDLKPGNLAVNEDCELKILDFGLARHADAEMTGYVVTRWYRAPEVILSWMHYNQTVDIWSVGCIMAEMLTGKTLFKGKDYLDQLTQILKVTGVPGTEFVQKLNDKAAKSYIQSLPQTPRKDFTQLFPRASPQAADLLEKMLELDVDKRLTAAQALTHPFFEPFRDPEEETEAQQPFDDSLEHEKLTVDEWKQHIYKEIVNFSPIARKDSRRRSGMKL
T16 sequence (Q16620 32-822): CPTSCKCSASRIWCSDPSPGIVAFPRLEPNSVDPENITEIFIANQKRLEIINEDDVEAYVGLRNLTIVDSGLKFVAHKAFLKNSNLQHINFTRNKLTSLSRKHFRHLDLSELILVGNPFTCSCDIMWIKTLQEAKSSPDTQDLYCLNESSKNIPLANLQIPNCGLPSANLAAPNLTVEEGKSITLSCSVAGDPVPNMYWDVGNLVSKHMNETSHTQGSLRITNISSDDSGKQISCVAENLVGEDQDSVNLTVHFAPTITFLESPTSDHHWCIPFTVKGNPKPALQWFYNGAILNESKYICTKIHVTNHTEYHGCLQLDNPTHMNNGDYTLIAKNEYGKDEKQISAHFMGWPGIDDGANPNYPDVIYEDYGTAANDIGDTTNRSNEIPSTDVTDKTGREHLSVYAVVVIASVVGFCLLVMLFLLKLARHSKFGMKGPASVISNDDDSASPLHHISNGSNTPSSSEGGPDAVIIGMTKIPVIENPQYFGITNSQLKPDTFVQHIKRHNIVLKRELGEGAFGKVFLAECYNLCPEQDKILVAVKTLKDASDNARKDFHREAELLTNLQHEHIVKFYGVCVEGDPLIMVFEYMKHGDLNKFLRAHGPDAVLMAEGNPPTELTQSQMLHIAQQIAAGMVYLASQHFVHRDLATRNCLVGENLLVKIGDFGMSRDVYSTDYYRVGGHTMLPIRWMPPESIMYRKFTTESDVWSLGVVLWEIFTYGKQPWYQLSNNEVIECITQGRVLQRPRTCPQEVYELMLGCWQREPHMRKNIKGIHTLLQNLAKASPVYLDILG
T22 sequence (P10721 26-976 V559D): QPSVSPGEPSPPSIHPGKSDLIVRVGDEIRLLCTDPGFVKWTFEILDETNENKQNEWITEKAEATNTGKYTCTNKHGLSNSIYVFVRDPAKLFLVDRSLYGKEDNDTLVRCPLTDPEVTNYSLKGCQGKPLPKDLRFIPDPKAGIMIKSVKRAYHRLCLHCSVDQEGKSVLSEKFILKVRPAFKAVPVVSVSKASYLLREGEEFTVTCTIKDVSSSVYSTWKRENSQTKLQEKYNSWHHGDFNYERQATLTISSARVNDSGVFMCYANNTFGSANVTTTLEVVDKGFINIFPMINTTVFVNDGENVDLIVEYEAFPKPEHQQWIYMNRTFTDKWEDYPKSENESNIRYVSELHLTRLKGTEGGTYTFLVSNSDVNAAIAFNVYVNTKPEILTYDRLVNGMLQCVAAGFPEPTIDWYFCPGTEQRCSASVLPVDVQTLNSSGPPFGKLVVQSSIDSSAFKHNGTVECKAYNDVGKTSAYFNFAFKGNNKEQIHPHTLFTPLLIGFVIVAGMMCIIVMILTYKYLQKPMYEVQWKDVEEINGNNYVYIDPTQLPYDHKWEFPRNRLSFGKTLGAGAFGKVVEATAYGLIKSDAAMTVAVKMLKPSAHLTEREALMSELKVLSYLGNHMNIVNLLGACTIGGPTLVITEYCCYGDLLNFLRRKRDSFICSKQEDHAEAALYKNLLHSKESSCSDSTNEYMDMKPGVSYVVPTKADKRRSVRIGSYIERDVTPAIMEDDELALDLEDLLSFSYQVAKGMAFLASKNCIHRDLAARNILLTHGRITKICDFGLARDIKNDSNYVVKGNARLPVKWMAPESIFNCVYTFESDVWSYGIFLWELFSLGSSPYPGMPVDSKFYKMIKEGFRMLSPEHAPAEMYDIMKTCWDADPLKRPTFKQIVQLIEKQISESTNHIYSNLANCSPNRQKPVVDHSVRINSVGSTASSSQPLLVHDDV
T32 sequence (Q13164 whole entry): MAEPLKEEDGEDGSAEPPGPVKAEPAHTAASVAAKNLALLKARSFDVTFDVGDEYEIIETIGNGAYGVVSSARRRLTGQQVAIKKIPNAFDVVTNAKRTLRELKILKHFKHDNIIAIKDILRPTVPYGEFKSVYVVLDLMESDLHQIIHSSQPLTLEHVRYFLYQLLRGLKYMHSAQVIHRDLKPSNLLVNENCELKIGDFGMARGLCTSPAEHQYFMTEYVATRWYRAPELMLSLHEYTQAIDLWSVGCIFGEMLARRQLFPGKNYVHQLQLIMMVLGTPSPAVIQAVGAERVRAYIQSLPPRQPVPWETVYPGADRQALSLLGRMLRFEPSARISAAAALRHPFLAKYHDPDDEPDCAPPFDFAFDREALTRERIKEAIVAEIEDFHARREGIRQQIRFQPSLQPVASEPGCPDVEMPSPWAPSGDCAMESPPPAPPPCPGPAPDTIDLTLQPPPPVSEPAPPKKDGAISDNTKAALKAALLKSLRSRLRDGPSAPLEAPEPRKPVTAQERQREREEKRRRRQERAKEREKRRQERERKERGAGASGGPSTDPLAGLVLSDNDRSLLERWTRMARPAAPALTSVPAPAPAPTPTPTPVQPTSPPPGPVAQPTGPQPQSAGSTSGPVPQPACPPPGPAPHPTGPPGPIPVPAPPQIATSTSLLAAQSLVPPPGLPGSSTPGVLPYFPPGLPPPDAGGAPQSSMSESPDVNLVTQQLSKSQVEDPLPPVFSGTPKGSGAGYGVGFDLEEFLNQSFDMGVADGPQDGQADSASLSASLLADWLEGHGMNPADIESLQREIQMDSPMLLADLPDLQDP
T5 sequence (Q13976 whole entry): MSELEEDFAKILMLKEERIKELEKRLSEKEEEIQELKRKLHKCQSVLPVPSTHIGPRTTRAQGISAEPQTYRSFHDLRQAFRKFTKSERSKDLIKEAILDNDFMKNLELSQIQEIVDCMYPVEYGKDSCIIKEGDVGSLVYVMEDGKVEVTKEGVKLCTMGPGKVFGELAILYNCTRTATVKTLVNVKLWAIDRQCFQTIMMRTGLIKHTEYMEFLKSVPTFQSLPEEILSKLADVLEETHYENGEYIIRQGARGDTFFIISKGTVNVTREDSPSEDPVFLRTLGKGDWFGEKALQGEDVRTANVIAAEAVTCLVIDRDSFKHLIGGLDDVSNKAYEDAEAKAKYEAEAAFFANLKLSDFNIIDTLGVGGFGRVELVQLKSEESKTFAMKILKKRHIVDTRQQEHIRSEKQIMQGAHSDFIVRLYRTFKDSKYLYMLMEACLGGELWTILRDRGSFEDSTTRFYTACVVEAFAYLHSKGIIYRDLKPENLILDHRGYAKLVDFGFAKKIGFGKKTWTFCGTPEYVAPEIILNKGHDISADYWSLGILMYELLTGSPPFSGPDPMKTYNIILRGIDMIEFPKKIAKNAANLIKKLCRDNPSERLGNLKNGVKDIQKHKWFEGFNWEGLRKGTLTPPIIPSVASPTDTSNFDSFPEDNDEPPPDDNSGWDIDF
T25 sequence (Q9NR20 whole entry): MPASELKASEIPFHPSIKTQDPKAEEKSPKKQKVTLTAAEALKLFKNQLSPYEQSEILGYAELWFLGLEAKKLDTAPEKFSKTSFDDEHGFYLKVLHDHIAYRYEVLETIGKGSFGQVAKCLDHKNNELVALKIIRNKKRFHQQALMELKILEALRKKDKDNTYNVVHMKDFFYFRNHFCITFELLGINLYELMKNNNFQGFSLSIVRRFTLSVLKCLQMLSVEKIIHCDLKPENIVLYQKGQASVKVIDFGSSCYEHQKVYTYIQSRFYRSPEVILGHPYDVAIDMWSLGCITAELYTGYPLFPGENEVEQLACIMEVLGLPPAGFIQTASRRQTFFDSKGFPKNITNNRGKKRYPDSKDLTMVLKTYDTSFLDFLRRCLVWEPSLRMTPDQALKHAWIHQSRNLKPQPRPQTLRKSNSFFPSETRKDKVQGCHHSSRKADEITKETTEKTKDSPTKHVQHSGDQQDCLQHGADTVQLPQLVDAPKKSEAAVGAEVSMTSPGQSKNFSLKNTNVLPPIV
T4 sequence (O76039 whole entry): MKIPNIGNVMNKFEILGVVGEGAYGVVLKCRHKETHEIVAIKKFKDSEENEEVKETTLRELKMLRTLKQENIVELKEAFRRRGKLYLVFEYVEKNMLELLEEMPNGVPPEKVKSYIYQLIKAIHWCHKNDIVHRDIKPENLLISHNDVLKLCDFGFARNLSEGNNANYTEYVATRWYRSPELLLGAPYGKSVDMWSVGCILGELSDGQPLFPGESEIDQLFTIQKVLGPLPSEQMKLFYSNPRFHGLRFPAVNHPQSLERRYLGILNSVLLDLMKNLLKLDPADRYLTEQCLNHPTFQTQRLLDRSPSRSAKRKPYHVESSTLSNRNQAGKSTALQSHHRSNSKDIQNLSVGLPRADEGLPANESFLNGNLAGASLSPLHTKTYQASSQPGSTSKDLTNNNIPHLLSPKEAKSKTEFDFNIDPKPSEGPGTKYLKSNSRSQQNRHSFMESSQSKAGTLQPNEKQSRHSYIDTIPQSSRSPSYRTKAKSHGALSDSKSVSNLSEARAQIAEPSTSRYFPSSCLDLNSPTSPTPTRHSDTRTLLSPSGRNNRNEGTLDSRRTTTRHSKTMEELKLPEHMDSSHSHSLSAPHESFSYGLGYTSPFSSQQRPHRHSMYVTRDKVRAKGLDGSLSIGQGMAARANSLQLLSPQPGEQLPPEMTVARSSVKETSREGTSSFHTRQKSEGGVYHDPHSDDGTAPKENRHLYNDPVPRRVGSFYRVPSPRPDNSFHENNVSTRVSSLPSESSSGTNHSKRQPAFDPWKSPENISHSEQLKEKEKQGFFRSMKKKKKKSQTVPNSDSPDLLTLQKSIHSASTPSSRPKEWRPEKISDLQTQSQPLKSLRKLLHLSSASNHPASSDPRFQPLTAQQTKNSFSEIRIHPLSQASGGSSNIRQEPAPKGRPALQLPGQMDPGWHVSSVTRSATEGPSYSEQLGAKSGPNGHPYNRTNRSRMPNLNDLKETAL

With `NS(=O)(=O)c1ccc(Nc2ncc3cc4n(c3n2)C2(CCCCC2)C(=O)NN4)cc1` [INX-315] as the compound, how does the inhibition at 0.1 µM (RPS6KA6 (RSK4)) read?
Its inhibition at 0.1 µM is 56%.

And the inhibition at 0.1 µM (AXL)?
The inhibition at 0.1 µM was 17%.

What about the inhibition at 0.1 µM (AMPK (A2/B2/G3)) of the same compound?
The inhibition at 0.1 µM was 32%.

What about the inhibition at 0.1 µM (CDKL5) of the same compound?
Its inhibition at 0.1 µM is -1%.

What about the inhibition at 0.1 µM (PRKG1) of the same compound?
The inhibition at 0.1 µM was 7%.

And the inhibition at 0.1 µM (PRKCN (PKD3))?
The inhibition at 0.1 µM was 13%.

What about the inhibition at 0.1 µM (DYRK1B) of the same compound?
The inhibition at 0.1 µM was 1%.

And the inhibition at 0.1 µM (PRKCB1 (PKC beta I))?
Its inhibition at 0.1 µM is 12%.

And the inhibition at 0.1 µM (DAPK3 (ZIPK))?
The inhibition at 0.1 µM was 6%.

What about the inhibition at 0.1 µM (MAPK11 (p38 beta)) of the same compound?
The inhibition at 0.1 µM was 7%.

What about the inhibition at 0.1 µM (EPHA4) of the same compound?
Its inhibition at 0.1 µM is 5%.

And the inhibition at 0.1 µM (ROS1)?
Its inhibition at 0.1 µM is 19%.

What about the inhibition at 0.1 µM (MARK1 (MARK)) of the same compound?
The inhibition at 0.1 µM was 9%.

What about the inhibition at 0.1 µM (EGFR (ErbB1) L861Q) of the same compound?
Its inhibition at 0.1 µM is 3%.

And the inhibition at 0.1 µM (SRPK1)?
The inhibition at 0.1 µM was 7%.

What about the inhibition at 0.1 µM (NTRK2 (TRKB)) of the same compound?
The inhibition at 0.1 µM was 52%.

What about the inhibition at 0.1 µM (MST1R (RON)) of the same compound?
Its inhibition at 0.1 µM is 2%.

What about the inhibition at 0.1 µM (EPHB1) of the same compound?
The inhibition at 0.1 µM was 19%.

What about the inhibition at 0.1 µM (PRKCA (PKC alpha)) of the same compound?
The inhibition at 0.1 µM was 9%.

What about the inhibition at 0.1 µM (CLK2) of the same compound?
Its inhibition at 0.1 µM is 8%.

What about the inhibition at 0.1 µM (MAPK3 (ERK1)) of the same compound?
Its inhibition at 0.1 µM is 2%.

What about the inhibition at 0.1 µM (KIT V559D) of the same compound?
Its inhibition at 0.1 µM is 21%.

And the inhibition at 0.1 µM (MELK)?
Its inhibition at 0.1 µM is 10%.

What about the inhibition at 0.1 µM (SNF1LK2) of the same compound?
Its inhibition at 0.1 µM is 18%.

And the inhibition at 0.1 µM (DYRK4)?
Its inhibition at 0.1 µM is 3%.

And the inhibition at 0.1 µM (MAPK8 (JNK1))?
Its inhibition at 0.1 µM is 6%.

And the inhibition at 0.1 µM (EGFR (ErbB1) G719S)?
The inhibition at 0.1 µM was 4%.

And the inhibition at 0.1 µM (NTRK3 (TRKC))?
The inhibition at 0.1 µM was 84%.

And the inhibition at 0.1 µM (STK3 (MST2))?
The inhibition at 0.1 µM was 19%.

What about the inhibition at 0.1 µM (NEK1) of the same compound?
Its inhibition at 0.1 µM is -10%.

What about the inhibition at 0.1 µM (MAPK13 (p38 delta)) of the same compound?
Its inhibition at 0.1 µM is 5%.

What about the inhibition at 0.1 µM (MAPK7 (ERK5)) of the same compound?
The inhibition at 0.1 µM was 5%.

And the inhibition at 0.1 µM (PDGFRB (PDGFR beta))?
The inhibition at 0.1 µM was 25%.

And the inhibition at 0.1 µM (IKBKE (IKK epsilon))?
The inhibition at 0.1 µM was 10%.

What about the inhibition at 0.1 µM (AMPK (A2/B1/G3)) of the same compound?
The inhibition at 0.1 µM was 17%.

What about the inhibition at 0.1 µM (AMPK A2/B1/G1) of the same compound?
The inhibition at 0.1 µM was 5%.

What about the inhibition at 0.1 µM (PLK2) of the same compound?
The inhibition at 0.1 µM was 5%.
